In article PMC7852567, “A first-in-human phase 1 and pharmacological study of TAS-119, a novel selective Aurora A kinase inhibitor in patients with advanced solid tumours” (British Journal of Cancer, 2020):
Read-outs that look alike come from different tables or passages of the source.

Key:
ROS [1] = conditions: cited from earlier work
TRK-A = system: TRK-A; set-up: method as in doi:10.1016/S0959-8049(14)70524-6; conditions: pre-clinical data; cited from earlier work
RET = system: RET; set-up: method as in doi:10.1016/S0959-8049(14)70524-6; conditions: pre-clinical data; cited from earlier work
[2] = system: phosphorylated histone H3 (pHH3); assay: pHH3 immunohistochemistry in paired skin biopsies and paired tumour samples; format: in vivo, human
Method: (§1) Blood and tissue samples were taken for PD on-target effects during mitosis of TAS-119. First, the rate of phosphorylated histone H3 (pHH3) immunohistochemistry-positive cells to total cells were measured in paired skin biopsies and paired tumour samples collected prior to first TAS-119 administration as well as after receiving TAS-119 on day 4 of cycle 1. In case of target engagement, an increase in pHH3 is expected because of cells that will stagnate in mitosis. Second, pre- and post-dose mRNA expression of genes involved in mitosis, BORA, SGOL2, KIF20A and DEPDC-1, was analysed in tissue samples by reverse transcriptase-polymerase chain reaction.

[3] = in vivo; cited from earlier work
ROS [4] = system: ROS; set-up: method as in doi:10.1016/S0959-8049(14)70524-6; conditions: pre-clinical data; cited from earlier work
AurC = system: AurC; set-up: method as in doi:10.1016/S0959-8049(14)70524-6; conditions: pre-clinical data; cited from earlier work
[5] = system: patients with advanced, refractory, solid tumours; assay: First-in-human phase 1 study: safety, tolerability, DLT, MTD, RP2D; format: in vivo; conditions: for DLT events in words: cycle 1
Method: This multicentre study (six centres) consisted of a dose escalation part with a 3 + 3 design to explore safety and tolerability. Patients were enrolled into predefined dose levels (DLs; 70, 150, 200, 250, 300 mg BID) utilising a 4 days on/3 days off schedule 3 out of 4 weeks (intermittent schedule). The rationale for this intermittent schedule was based on pre-clinical data showing a more favourable toxicity profile, compared to continuous dosing regimens while maintaining antitumour activity. In addition to the 4 days on/3 days off, 3 out of 4 weeks schedule, a continuous dosing (200 mg BID) schedule with the same weekly schedule (4 days on/3 days off) administered 4 out of 4 weeks, was explored in the escalation phase. A minimum of 3 patients were to be treated at each DL, and at least 6 patients were planned to be enrolled at the MTD level. The MTD was defined as the highest DL at which <33% of patients experienced a dose-limiting toxicity (DLT) during cycle 1. The RP2D was defined as a dose below or equal to the MTD based on the evaluation of all available information (tolerability in cycles after cycle 1, PK, PD or other safety information). The RP2D was used in the expansion part of this study. Based on the safety profile assessed in the dose escalation part of this study, either the intermittent (3 out of 4 weeks) or the continuous dosing schedule (4 out of 4 weeks) could be selected.
TAS-119 was administered orally BID as tablets of 25 and 100 mg strength, on an empty stomach. Based on rodent toxicology data, 70 mg BID was determined as the starting dose after conversion from the severely toxic dose in 10% of exposed animals (STD10) (63 mg/kg BID) to one tenth of the human equivalent dose. […] Non-haematological DLTs consisted of grade ≥3 toxicity (excluding nausea/vomiting lasting <48 h and controlled by anti-emetic therapy, diarrhoea lasting <48 h and responsive to anti-diarrhoea medication or hypersensitivity reactions), whereas haematological DLT consisted of any grade 4 neutropenia lasting >7 days, any febrile neutropenia (documented absolute neutrophil count <1000/mm^3) lasting >1 h, any grade 4 thrombocytopenia or grade 3 thrombocytopenia associated with bleeding and requiring blood transfusion.
Vital sign assessment, blood cell count, serum biochemistry, coagulation parameters, urinalysis, a 12-lead electrocardiogram and, if applicable, a pregnancy test were performed at baseline. In addition, after the amendment of the protocol (Amendment 2: 31-March-2015) an ophthalmologic assessment, including visual acuity, pupil shape and pupillary reflexes, extraocular motility (eye movement) and alignment, tonometry, visual field, external examination, slit-lamp examination, and fundoscopy, was performed and repeated in all patients on days 8 and 22 during cycle 1 and on day 1 of every subsequent cycle, beginning with cycle 3. This was a consequence of ocular toxicity observed in 2 out of 26 patients until that moment.
(§2) Adverse events (AEs) at baseline and during the study were recorded and graded based on the Common Terminology Criteria for Adverse Events v4.03. Tumour measurements were done at the end of every second cycle or as per the Institutional standard of care in case of clinical indications. Response were assessed using Response Evaluation Criteria in Solid Tumours (RECIST) v1.1.[19]

TRK-C = system: TRK-C; set-up: method as in doi:10.1016/S0959-8049(14)70524-6; conditions: pre-clinical data; cited from earlier work
[6] = system: BORA, SGOL2, KIF20A and DEPDC-1; assay: mRNA expression of mitosis genes by RT-PCR in tissue samples; format: in vivo, human; conditions: 32 patients from the dose escalation part
Method: as §1

advanced solid tumours = assay: Antitumour activity by RECIST v1.1; format: in vivo, human
Method: as §2
Planned enrolment in the dose escalation part included 18–30 evaluable patients, with 3–6 DLT evaluable patients in each DL. To further assess the feasibility as well as preliminarily efficacy of the RP2D, approximately 40 patients were planned to be enrolled into the expansion part (approximately 10–15 patients in each of the expansion cohorts). An additional 20 patients were pre-planned to be enrolled in an extension of the expansion part provided that either an overall response rate (ORR) of ≥20% for each specific indication or ≥10% for patients with MYC-amplified or β-catenin-mutated tumours had been observed.

AurA = system: AurA; set-up: method as in doi:10.1016/S0959-8049(14)70524-6; conditions: pre-clinical data; cited from earlier work
[7] = Plasma and urine pharmacokinetics in patients (LC-MS/MS, non-compartmental); format: in vivo, human; conditions: for mean ratio of AUC0 − last (accumulation): RP2D level DL 2.1, 200 mg BID; for Tmax: po, all dose levels; for CL renal: urine, urine 0 to 12 h, cycle 1 day 1
Method: Blood samples for PK analysis were collected in cycle 1, on days 1, 4 and 18 pre-dose and at 0.5, 1, 2, 3, 5, 8, and 12 h post-dose. Urine samples were collected on day 1 of cycle 1 before dosing and from 0 to 12 h after dosing. Plasma and urine concentrations of TAS-119 were determined by validated liquid chromatography–tandem mass spectrometry method. PK parameters included the peak plasma concentration (Cmax), time to reach maximum concentration in plasma (Tmax), area under the plasma concentration–time curve up to the last observable concentration (AUC0 − last) and up to infinity (AUC0 − inf), terminal phase elimination half-life (T1/2), clearance (CL/F), apparent volume of distribution (Vd/F), renal clearance (CLr) and oral clearance (CL/F).
The influence of polymorphisms of SLCO1B1 encoding the drug influx transporter OATP1B1 was examined in a blood sample obtained pre-dose on day 1 of cycle 1 for all patients during the dose escalation part. MYC amplification and β-catenin mutation were assessed in archival formalin-fixed paraffin-embedded tumour samples obtained after enrolment of the patient into the study.
Descriptive statistics were used to summarise safety data (AEs, vital signs and clinical laboratory results) overall response based on RECIST, PK and PD data. PK parameters were calculated by standard non-compartmental methods using Phoenix^TMWinNonlin® (Ver 6.3 or later, Certara L.P.). Dose proportionality of TAS-119 was evaluated with a power model and a linear regression model using logarithmic values of PK parameters such as Cmax and AUCs, as well as a one-way analysis of variance (ANOVA) using dose-normalised parameters such as Cmax, AUCs, CL/F, and apparent volume of distribution (Vd/F). Student’s t test was used to test statistical significance of the PD data and calculate the mean ratio for AUC0 − last at RP2D or MTD. Influence of SLCO1B1 genotypes on PK parameters was tested by ANOVA.

[8] = cited from earlier work
AurB = system: AurB; set-up: method as in doi:10.1016/S0959-8049(14)70524-6; conditions: pre-clinical data; cited from earlier work
[9] = system: cancer cells with MYC oncogene amplifications and/or mutations in the Wnt/β-catenin pathway; set-up: method as in PMID 22222631, doi:10.15761/IMM.1000162; conditions: cited from earlier work
TRK-B = system: TRK-B; set-up: method as in doi:10.1016/S0959-8049(14)70524-6; conditions: pre-clinical data; cited from earlier work

Compound: COc1cc(Nc2ncc3c(n2)-c2ccc(Cl)cc2C(c2c(F)cccc2OC)=NC3)ccc1C(=O)O [Alisertib]
- mean inhibition of ROS (ROS [1]): 80%

Compound: Cc1cc(Nc2nc(CC3(C(=O)O)CCN(C(=O)c4cccc(Cl)c4Cl)CC3)ccc2F)n[nH]1 [TAS-119]
- IC50 (TRK-A): 1.46 ± 0.16 nM
- IC50 (RET): 25.8 ± 1.5 nM
- mean pHH3-positive rate in skin samples after administration ([2]; 55 paired samples, pre-dose versus day 4 of cycle 1, p value <0.0001): increased
- mean pHH3 rate in paired tumour samples ([2]; eight paired tumour samples): did not significantly change
- severely toxic dose in 10% of exposed animals (STD10) [3]: 63 mg/kg BID
- IC50 (ROS [4]): 29.3 ± 0.8 nM
- IC50 (AurC): 36.5 nM
- maximum tolerated dose (MTD) ([5]; 4 days on/3 days off, 3 out of 4 weeks): 250 mg BID
- DLT events in words ([5]; DL 2.2, 250 mg BID): one patient with grade 2 AEs of fatigue, corneal epithelial microcysts and nausea
- DLT events in words ([5]; DL 3, 300 mg BID, 2 patients): SAE of corneal microcysts, grade 2 and 3
- AE with the outcome of death ([5]; escalation part, one patient at DL 2 (150 mg BID), disease progression, deemed not study treatment related): 3%
- AEs with the outcome of death ([5]; expansion part): No AEs with the outcome of death
- AE: Alkaline phosphatase increase ([5]; human, in vivo): 7 (17.5) n, %
- AE: Amylase increase ([5]; human, in vivo): 4 (10.0) n, %
- AE: Gamma-glutamyltransferase increase ([5]; human, in vivo): 7 (17.5) n, %
- AE: Headache ([5]; human, in vivo): 5 (12.5) n, %
- AE: Hyperglycaemia ([5]; human, in vivo): 5 (12.5) n, %
- AE: Hypoalbuminaemia ([5]; human, in vivo): 5 (12.5) n, %
- AE: Hypokalaemia ([5]; human, in vivo): 4 (10.0) n, %
- AE: Hypotension ([5]; human, in vivo): 5 (14.7) n, %
- AE: Pruritis ([5]; human, in vivo): 4 (10.0) n, %
- AE: Upper respiratory tract infection ([5]; human, in vivo): 5 (12.5) n, %
- AE: Urinary tract infection ([5]; human, in vivo): 6 (15.0) n, %
- AE: Weight loss ([5]; human, in vivo): 4 (11.8) n, %
- AEs leading to discontinuation of study drug ([5]; human, in vivo): 12%
- AEs leading to discontinuation of the study drug ([5]; human, in vivo): 8%
- dose dependence of ocular toxicity ([5]; human, in vivo): dose dependent and only seen at doses of 200 mg BID and above
- grade ≥3 diarrhoea ([5]; human, in vivo): 5/74
- grade ≥3 increased lipase without symptoms of pancreatitis ([5]; human, in vivo): 9/74
- ocular side effects, in total ([5]; human, in vivo): 9 patients
- ocular toxicity throughout the various DLs ([5]; human, in vivo): 38 % of the patients
- recommended phase 2 dose (RP2D) ([5]; human, in vivo): 200 mg BID
- treatment-related AEs leading to discontinuation of study drug ([5]; human, in vivo): 9%
- patients with DLT during cycle 1 ([5]; in vivo): Five
- patients with an ocular DLT ([5]; in vivo): four
- treatment-related AEs leading to discontinuation of the study drug ([5]; in vivo): none
- IC50 (TRK-C): 1.47 ± 0.04 nM
- mRNA expression level of mitosis genes after dosing [6]: no significant increase
- patients with stable disease as best response (advanced solid tumours; DL 2 (150 mg BID)): 6 patients
- patients with stable disease as best response (advanced solid tumours; DL 2.1 (200 mg BID continuous schedule)): 4 patients
- patients with stable disease as best response (advanced solid tumours; DL 2.1 (200 mg BID)): 4 patients
- complete or partial response (advanced solid tumours; dose escalation part): no complete response (CR) or partial response (PR)
- stable disease as best response (advanced solid tumours; dose escalation part, fourteen patients): 41%
- patients with unconfirmed PR (advanced solid tumours; epithelial mesothelioma, DL 2 (150 mg BID), at cycle 4): One
- target ORR of 20% (or ≥10% for MYC amplification or β-catenin mutation) (advanced solid tumours; expansion part): not met
- complete or partial response (advanced solid tumours; expansion part, 200 mg BID): no confirmed CR or PR
- patients with stable disease (advanced solid tumours; expansion part, MYC-amp/B-cat mutation-positive tumours): 5 patients
- patients with stable disease (advanced solid tumours; expansion part, SCLC): 5 patients
- patients with stable disease (advanced solid tumours; expansion part, basket cohort (1 mesothelioma, 1 colorectal cancer)): 2 patients
- patients with stable disease (advanced solid tumours; expansion part, breast cancer): 1 patients
- IC50 (AurA): 1.04 nM
- increase of plasma exposure with dose ([7]; 70–300 mg BID, power model, linear model and one-way ANOVA): dose-proportional
- CL/F and Vd/F among SLCO1B1 polymorphism-caused phenotypes (normal/intermediate/low) ([7]; ANOVA): no statistical differences
- mean ratio of AUC0 − last (accumulation) ([7]; day 4): 1.3
- mean ratio of AUC0 − last (accumulation) ([7]; day 18): 1.2
- ratio of AUC0 − last (accumulation) ([7]; continuous 200 mg BID schedule (DL 2.1), day 18): 1.1
- accumulation ratios throughout all DLs ([7]; human, in vivo): low
- half-life ([7]; human, plasma, oral, blood concentrations, across dose levels): 168 to 360 min
- Tmax ([7]; human, plasma, plasma, oral, read-out: Tmax range): 0.5 to 2 h
- Tmax ([7]; human, plasma, plasma, oral, read-out: median Tmax): 1.2 h
- CL renal ([7]; human, oral, read-out: CLr (renal clearance), median (converted)): 4.17 mL/min
- CL renal ([7]; human, oral, read-out: CLr (renal clearance), range): 2.5 to 5.17 mL/min
- oral clearance (CL/F), median ([7]; plasma): 9.79 L/h
- oral clearance (CL/F), range ([7]; plasma): 2.72 to 13.94 L/h
- microscopic findings in pre-clinical high-dose toxicity study ([8]; animals, considerable individual variation): degeneration and regeneration or hyperplasia of epithelial tissue
- vomiting and liquid faeces, cyclic administration versus daily administration ([8]; cyclic administration 4 days on/3 days off, pre-clinical): less frequent vomiting and liquid faeces
- microscopic findings in pre-clinical high-dose toxicity study, eyes ([8]; only in dogs): involvement of the epithelium of the eyes
- IC50 (AurB): 95 nM
- growth inhibitory effects on cancer cells with MYC amplifications and/or Wnt/β-catenin pathway mutations [9]: more potent growth inhibitory effects
- IC50 (TRK-B): 1.53 ± 0.12 nM
